Source: ChEMBL document CHEMBL1201862, “PubChem BioAssay data set” (2004)
One block for each molecule: values may come before it. Activity calls are given as the source filed them.

Tests used:
Format in all cases: functional
[1] = molecular target: Calcium/calmodulin-dependent protein kinase type II subunit alpha (Homo sapiens, UniProt Q9UQM7); assay: Navigating the Kinome. Panel member name: CAMK2A
[2] = molecular target: Dual specificity tyrosine-phosphorylation-regulated kinase 1B (Homo sapiens, UniProt Q9Y463); assay: Navigating the Kinome. Panel member name: DYRK1B
[3] = molecular target: Focal adhesion kinase 1 (Homo sapiens, UniProt Q05397);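 further: measured as one member of a kinome panel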
[4] = molecular target: cAMP-dependent protein kinase catalytic subunit PRKX (Homo sapiens, UniProt P51817)
[5] = molecular target: Aurora kinase B (Homo sapiens, UniProt Q96GD4)
[6] = molecular target: Tyrosine-protein kinase Blk (Homo sapiens, UniProt P51451);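 further: obtained as one member of a kinome-wide kinase assay panel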
[7] = MITF Orthogonal Assay: MALME3 CTG Assay Measured in Cell-Based System Using Plate Reader - 2084-04_Inhibitor_Dose_DryPowder_Activity_Set6.; details: MALME-3
[8] = viability loss in MITF-independent A375 cells – cell-based, CellTiter-Glo luminescence, dry powder, set 2, counter-screen for MITF inhibitor project, dose response (AID 624489); details: A-375;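 further: actives are compounds lowering A375 viability meaning general cytotoxicity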
[9] = molecular target: T1, Orexin/Hypocretin receptor type 1 (Homo sapiens, UniProt O43613); assay: Fluorescence-based cell-based high throughput dose response assay for antagonists of the orexin 1 receptor (OX1R; HCRTR1). [Related pubchem assays (depositor defined):AID434989, AID435008, AID463079, AID485270, AID492963, AID492964, AID492965, AID493232, AID504717, AID504718]
T1 sequence (O43613 whole entry): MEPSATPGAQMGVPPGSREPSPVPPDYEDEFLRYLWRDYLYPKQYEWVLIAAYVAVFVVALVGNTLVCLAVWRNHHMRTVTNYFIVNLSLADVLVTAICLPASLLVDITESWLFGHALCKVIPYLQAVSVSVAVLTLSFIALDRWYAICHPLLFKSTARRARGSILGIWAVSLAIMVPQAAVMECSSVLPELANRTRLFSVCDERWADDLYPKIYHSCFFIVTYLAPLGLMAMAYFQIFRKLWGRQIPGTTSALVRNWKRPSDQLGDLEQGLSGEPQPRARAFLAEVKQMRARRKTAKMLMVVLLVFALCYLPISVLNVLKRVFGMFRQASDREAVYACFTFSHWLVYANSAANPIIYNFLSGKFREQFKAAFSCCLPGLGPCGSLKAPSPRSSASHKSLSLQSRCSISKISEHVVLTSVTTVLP

[10] = Counterscreen for antagonists of the orexin 1 receptor (OX1R; HCRTR1): Fluorescence-based cell-based high throughput dose response assay to identify antagonists of the parental CHO cell line. [Related pubchem assays (depositor defined):AID434989, AID435008, AID463079, AID485270, AID492963, AID492964, AID492965, AID493232, AID504699, AID504701]

Sequence of Focal adhesion kinase 1 (Q05397 whole entry): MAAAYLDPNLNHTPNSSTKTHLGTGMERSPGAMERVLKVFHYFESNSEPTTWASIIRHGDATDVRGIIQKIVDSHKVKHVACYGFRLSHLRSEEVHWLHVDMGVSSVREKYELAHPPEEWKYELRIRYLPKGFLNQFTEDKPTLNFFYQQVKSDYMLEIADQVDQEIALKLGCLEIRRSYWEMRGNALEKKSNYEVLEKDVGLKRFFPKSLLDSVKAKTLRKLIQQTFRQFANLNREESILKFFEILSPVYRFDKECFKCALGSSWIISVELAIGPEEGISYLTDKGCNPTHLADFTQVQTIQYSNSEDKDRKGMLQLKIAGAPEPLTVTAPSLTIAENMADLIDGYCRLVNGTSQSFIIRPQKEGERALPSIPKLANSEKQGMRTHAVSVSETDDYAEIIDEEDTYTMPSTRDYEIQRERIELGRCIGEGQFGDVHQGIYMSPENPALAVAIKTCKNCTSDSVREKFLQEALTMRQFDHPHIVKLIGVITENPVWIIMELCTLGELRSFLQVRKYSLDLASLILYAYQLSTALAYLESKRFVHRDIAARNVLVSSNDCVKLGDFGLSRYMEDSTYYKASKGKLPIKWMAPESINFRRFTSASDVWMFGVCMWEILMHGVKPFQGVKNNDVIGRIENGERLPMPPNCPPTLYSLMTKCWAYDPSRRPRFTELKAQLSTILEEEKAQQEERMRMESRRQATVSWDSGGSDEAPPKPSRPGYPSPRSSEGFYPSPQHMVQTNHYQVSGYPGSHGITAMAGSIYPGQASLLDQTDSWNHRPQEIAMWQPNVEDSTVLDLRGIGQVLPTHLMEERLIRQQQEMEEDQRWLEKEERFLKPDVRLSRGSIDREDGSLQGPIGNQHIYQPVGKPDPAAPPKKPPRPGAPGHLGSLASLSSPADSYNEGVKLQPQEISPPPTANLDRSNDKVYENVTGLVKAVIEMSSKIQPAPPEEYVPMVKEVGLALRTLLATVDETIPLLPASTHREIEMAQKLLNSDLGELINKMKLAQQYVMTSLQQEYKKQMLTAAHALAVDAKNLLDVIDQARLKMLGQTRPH
Sequence of Calcium/calmodulin-dependent protein kinase type II subunit alpha (Q9UQM7 whole entry): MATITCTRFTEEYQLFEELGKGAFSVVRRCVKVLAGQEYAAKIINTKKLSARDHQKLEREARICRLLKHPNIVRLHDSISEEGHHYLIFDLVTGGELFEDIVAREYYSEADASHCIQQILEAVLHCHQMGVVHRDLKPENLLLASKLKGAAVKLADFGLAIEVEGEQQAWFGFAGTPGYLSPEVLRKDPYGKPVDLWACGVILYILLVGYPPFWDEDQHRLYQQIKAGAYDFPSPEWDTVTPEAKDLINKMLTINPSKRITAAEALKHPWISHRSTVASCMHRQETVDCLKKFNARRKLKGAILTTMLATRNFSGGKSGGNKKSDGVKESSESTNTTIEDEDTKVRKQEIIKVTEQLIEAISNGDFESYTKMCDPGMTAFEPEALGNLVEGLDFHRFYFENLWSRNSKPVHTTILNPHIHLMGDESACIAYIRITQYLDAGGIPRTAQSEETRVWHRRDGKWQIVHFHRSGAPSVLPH
Sequence of Aurora kinase B (Q96GD4 whole entry): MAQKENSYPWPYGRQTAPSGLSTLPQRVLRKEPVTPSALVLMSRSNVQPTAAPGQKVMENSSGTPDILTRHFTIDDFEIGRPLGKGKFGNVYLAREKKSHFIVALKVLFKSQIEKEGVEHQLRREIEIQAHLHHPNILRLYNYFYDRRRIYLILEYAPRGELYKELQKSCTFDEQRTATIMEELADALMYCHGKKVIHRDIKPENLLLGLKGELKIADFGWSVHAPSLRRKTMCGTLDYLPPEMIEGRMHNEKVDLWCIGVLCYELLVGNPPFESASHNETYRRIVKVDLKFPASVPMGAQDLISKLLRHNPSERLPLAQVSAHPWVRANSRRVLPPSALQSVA
Sequence of Dual specificity tyrosine-phosphorylation-regulated kinase 1B (Q9Y463 whole entry): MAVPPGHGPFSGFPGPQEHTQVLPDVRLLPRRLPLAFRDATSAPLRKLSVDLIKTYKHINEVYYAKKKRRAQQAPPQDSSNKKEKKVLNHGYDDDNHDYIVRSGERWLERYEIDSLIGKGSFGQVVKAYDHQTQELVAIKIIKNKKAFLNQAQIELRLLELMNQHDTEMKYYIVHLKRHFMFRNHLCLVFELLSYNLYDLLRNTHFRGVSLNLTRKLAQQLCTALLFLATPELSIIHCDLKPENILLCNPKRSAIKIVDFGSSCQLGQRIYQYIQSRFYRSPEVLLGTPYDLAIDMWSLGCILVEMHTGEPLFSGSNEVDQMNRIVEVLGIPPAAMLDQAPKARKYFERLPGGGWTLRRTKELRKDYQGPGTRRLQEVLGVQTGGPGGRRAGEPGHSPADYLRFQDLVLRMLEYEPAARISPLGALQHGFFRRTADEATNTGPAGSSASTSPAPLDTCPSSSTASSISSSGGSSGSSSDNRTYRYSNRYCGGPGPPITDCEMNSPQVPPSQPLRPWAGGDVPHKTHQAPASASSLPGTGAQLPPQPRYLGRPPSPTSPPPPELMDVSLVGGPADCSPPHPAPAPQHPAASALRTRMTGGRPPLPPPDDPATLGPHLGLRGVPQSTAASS
Sequence of Tyrosine-protein kinase Blk (P51451 whole entry): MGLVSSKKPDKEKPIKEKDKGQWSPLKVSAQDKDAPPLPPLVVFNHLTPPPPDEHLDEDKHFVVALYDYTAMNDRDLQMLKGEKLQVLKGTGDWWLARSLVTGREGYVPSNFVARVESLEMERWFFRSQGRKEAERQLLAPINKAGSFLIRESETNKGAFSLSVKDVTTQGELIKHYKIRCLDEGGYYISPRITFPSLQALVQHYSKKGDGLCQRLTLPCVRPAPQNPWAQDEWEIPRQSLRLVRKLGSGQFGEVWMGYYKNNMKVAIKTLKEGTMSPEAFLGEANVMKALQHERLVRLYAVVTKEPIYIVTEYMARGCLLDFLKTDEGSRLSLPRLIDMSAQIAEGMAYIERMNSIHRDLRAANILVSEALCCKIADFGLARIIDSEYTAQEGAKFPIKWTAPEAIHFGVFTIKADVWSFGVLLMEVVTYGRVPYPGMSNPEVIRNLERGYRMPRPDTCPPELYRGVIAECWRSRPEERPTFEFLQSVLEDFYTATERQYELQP
Sequence of cAMP-dependent protein kinase catalytic subunit PRKX (P51817 whole entry): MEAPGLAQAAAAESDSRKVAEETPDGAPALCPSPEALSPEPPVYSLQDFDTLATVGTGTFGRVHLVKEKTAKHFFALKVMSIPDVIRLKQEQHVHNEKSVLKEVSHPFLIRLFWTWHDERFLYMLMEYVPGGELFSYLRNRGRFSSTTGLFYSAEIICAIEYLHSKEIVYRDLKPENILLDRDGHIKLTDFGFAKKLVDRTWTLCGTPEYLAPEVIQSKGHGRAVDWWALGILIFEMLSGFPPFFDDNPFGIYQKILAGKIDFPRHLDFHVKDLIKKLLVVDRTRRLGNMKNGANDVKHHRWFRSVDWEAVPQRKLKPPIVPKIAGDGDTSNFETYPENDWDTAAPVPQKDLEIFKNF

Ki [1]: 0.398 µM (active)
Ki [2]: 0.0158 µM (active)
Ki [3]: > 6.31 µM (inactive)
Ki [4]: 0.0501 µM (active)
Ki [5]: 0.2 µM (active)
Ki [6]: 1.26 µM (active)
SMILES: COc1ccc(C(=O)Nc2n[nH]c3ccc(-c4cn(Cc5ccccc5)nn4)cc23)cc1OC

SMILES: C=CCNC1=C(Cl)C(=O)c2ccccc2C1=O
AC50 [7]: 9.99 µM (active)
AC50 [8]: > 70 µM (inactive)

SMILES: CN(C)c1ccc(-c2nnc(-c3cccs3)o2)cc1
IC50 [9]: > 49.7 µM (inactive)
IC50 [10]: > 49.7 µM (inactive)
